This is an account of results in PubChem BioAssay (NCI).

Assay in all cases: growth of human tumour cells (NCI), 48 h
For assay [1], the system named is U251 CNS.
Assay [2] concerns OVCAR-3 ovarian.
Assay [3] deals with 786-0 renal.
Assay [4] concerns SF-295 CNS.
Assay [5] relates to LOX IMVI melanoma.
The test system of assay [6] is CCRF-CEM leukemia.
The subject of assay [7] is A549 NSCLC.
Assay [8] concerns HL-60(TB) leukemia.
For assay [9], the system named is NCI-H460 lung.
The test system of assay [10] is OVCAR-5 ovarian.
Assay [11] concerns OVCAR-8 ovarian.
For assay [12], the system named is HOP-92 NSCLC.
Assay [13] relates to NCI-H23 lung.
In assay [14] the test system is SNB-78 CNS.
The test system of assay [15] is TK-10 renal.
Assay [16] has as its system NCI-H226 lung.
Assay [17] concerns CAKI-1 renal.
Assay [18] deals with MALME-3M melanoma.
Assay [19] deals with SK-OV-3 ovarian.

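Grown in 96-well plates, cells were treated for 48 hours with each compound at five concentrations. Insufficient inhibition: endpoint recorded as highest concentration tested. TGI is the concentration that stops growth completely.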

Take `CN1Cc2cc3c(cc2-c2ccccc21)OCO3`: the TGI in assay [1], in assay [2], in assay [3], in assay [4], in assay [5] and in [6] was above 100 µM each time. The TGI in [7], in [8], in [9], in assay [10], in [11] and in assay [12] was above 100 µM each time. For the same compound, the TGI in [13], in [14] and in assay [15] was above 100 µM in each case.
For `O=[N+]([O-])c1c(C=Nc2ccccc2)oc(-c2ccc3c(c2)OCO3)c1-c1ccc2c(c1)OCO2`, the TGI in assay [16], in assay [1], in assay [2], in assay [17], in [3] and in assay [4] was above 100 µM in each case. In addition, the TGI in [5], in assay [7], in [8], in assay [9], in [10] and in assay [11] was above 100 µM each time. The TGI in assay [18], in assay [19], in assay [12], in [13], in [14] and in assay [15] was above 100 µM in each case.
Consider `CCOP(=O)(OCC)C(C(=O)OC)C(=O)C(=O)Nc1c(C)cc(Br)cc1C` (centres undefined), for which the TGI in assay [16], in assay [1], in assay [2], in assay [17], in [3] and in [5] was above 100 µM throughout. The TGI in assay [6], in [7], in [8], in assay [9], in [10] and in assay [11] was above 100 µM in each case. The TGI in [18], in assay [19], in [12], in [13], in assay [14] and in assay [15] was above 100 µM in each case.
`CCCCCCCC(=O)OCC1OC(OC)C(NC(=O)N(CCCl)N=O)C(O)C1O` (centres undefined): the TGI in assay [16] was 42.1 µM; in [1], above 70.1 µM; in assay [2], 47.7 µM; in assay [17] it was 32.6 µM; in [3] it was 22.7 µM; in [4] it was 33 µM. Also, the TGI in assay [5] is 23.8 µM; in assay [6], 40.5 µM; in assay [7] it was above 72.3 µM; in [8], 22.3 µM; in [9] it was above 39.2 µM; in assay [10], 97.5 µM. Moreover, the TGI was determined as 57.2 µM in [11]; 28.5 µM in [18]; 97.1 µM in assay [19]; 9.96 µM in [12]; 29.4 µM in assay [13]; 79.6 µM in assay [14]. This compound also registered a TGI in assay [15] of 58 µM.
As for `CC(C)N1CN(C(C(=O)N[C@@H]2C(=O)N3C2SC(C)(C)C3C(=O)O)c2ccc(O)cc2)CSC1=S` (some centres undefined), the TGI in assay [1], in [2], in assay [17], in [3], in assay [4] and in assay [5] was above 100 µM each time. The TGI in assay [6], in assay [8], in [9], in [10], in assay [11] and in [18] was above 100 µM in each case. Besides, the TGI in assay [19], in assay [12], in [13], in assay [14] and in assay [15] was above 100 µM each time.
On to `O=c1[nH]cnc2c1CCCN2`, for which the TGI in assay [1], in assay [2], in assay [17], in [3], in [4] and in assay [5] was above 100 µM each time. For the same compound, the TGI in assay [6], in assay [7], in [8], in assay [10], in assay [11] and in assay [18] was above 100 µM each time. Moreover, the TGI in assay [19], in [12], in assay [13], in assay [14] and in assay [15] was above 100 µM in each case.
With `CCOc1ccc(NC(=O)C2=C(C)NC(C)=C(C(=O)Nc3ccc(OCC)cc3)C2c2ccccc2)cc1`, the TGI in assay [16], in [1], in [2], in assay [17], in assay [3] and in assay [4] was above 100 µM in each case. Besides, the TGI is above 100 µM in assay [5]; above 100 µM in assay [6]; above 100 µM in [7]; 96.9 µM in assay [8]; above 100 µM in assay [9]; above 100 µM in [10]. For the same compound, the TGI in assay [11], in assay [18], in [19], in assay [12], in assay [13] and in assay [14] was above 100 µM in each case. In assay [15], this compound registered a TGI above 100 µM.
Take `COc1cc(/C=C2\C(=O)N(C(=O)c3ccc(NC(C)=O)cc3)N=C2C)ccc1O`: the TGI in assay [16], in [2], in assay [17], in [3], in assay [4] and in assay [5] was above 100 µM in each case. Further, the TGI in assay [6], in [7], in assay [8], in [9], in assay [10] and in assay [11] was above 100 µM throughout. Besides, the TGI in [18], in [13], in [14] and in [15] was above 100 µM throughout.
